From patent US8536354B2, “Steroidal ligands and their use in gene switch modulation” (Intrexon Corporation, priority 2008, dated 2013)
Substitutions are numbered along the chain they refer to. Read-outs that look alike come from different tables or passages of the source.

Legend:
[1] = target: T1, wild-type Choristoneura fumiferana EcR (CfEcR-DEF) (Choristoneura fumiferana, UniProt O77255); test: Two-hybrid gene switch assay, wild-type CfEcR-DEF (GAL4-EcR / VP16-RXR-USP chimera, luciferase) in NIH3T3 cells; conditions: for Emax: NIH3T3, 48 h, read-out: rel max FI (diacylhydrazine), CF
T1 sequence (O77255 219-541): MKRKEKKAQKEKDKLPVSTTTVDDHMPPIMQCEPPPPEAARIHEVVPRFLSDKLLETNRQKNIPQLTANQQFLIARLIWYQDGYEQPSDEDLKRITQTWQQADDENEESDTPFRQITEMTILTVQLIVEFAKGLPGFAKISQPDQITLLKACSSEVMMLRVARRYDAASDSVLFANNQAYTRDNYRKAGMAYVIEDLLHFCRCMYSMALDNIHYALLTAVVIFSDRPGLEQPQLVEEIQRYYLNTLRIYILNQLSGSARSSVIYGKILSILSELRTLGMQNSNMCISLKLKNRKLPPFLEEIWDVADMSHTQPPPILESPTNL
T1 sequence (P28702 299-449 partner): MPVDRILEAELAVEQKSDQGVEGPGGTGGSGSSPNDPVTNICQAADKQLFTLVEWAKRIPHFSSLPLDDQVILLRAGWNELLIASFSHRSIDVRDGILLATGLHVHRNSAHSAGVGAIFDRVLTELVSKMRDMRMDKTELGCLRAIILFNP

[2] = target: wild-type Drosophila melanogaster EcR (DmEcR; GAL4-EcR DEF with VP16-RXR-USP chimera) (Drosophila melanogaster, UniProt P34021); test: Two-hybrid gene switch assay, luciferase reporter, wild-type DmEcR, mouse NIH3T3 cells; format: cell-based
[3] = target: T2, wild-type CfEcR (GAL4-CfEcR-DEF with VP16-RXR-USP chimera) (Choristoneura fumiferana, UniProt O77255); test: Two-hybrid gene switch assay, luciferase reporter, wild-type CfEcR, mouse NIH3T3 cells
T2 sequence (O77255 219-541): T1 sequence (O77255 219-541) with E230A
T2 sequence (P28702 1-533 partner): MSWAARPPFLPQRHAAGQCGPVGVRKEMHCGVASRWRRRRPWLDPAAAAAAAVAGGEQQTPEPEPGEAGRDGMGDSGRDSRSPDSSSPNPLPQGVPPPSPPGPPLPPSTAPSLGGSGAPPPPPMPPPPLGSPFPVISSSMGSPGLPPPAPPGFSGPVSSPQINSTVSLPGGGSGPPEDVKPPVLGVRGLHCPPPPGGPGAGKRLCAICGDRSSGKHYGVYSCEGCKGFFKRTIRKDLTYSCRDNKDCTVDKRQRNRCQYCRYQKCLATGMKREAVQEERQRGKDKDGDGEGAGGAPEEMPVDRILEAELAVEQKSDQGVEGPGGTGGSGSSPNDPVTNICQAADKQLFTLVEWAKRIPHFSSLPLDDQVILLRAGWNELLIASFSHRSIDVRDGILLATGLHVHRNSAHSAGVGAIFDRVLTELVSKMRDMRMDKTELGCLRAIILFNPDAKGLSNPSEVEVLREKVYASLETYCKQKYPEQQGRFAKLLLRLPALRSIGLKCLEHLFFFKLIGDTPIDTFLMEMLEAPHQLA

[4] = target: wild-type Aedes aegypti EcR (AaEcR; GAL4-EcR DEF with VP16-RXR-USP chimera) (Aedes aegypti, UniProt P49880); test: Two-hybrid gene switch assay, luciferase reporter, wild-type AaEcR, mouse NIH3T3 cells; format: cell-based
[5] = target: T3, MsEcR (GAL4-EcR DEF with VP16-RXR-USP chimera) (Manduca sexta, UniProt P49883); test: Two-hybrid gene switch assay, luciferase reporter, MsEcR, mouse NIH3T3 cells; conditions: EC50, FIG. 15, GAL4-EcR (DEF) / VP16-RXR-USP chimera
T3 sequence (P49883 1-556): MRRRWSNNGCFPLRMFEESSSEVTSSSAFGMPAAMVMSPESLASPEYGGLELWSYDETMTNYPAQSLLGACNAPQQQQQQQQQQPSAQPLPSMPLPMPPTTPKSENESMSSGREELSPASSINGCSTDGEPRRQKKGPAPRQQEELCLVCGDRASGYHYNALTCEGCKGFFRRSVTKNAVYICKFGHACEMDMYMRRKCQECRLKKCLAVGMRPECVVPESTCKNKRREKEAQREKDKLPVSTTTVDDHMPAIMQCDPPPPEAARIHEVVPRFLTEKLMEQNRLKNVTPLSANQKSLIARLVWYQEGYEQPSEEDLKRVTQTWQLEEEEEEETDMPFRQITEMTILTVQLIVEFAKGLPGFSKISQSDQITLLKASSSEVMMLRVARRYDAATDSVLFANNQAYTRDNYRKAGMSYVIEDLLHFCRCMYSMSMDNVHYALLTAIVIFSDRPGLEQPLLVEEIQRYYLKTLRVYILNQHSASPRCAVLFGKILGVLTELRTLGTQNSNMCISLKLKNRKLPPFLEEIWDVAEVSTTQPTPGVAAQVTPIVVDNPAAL
T3 sequence (P28702 1-533 partner): T2 sequence (P28702 1-533 partner)

[6] = target: T4, TmEcR (GAL4-EcR DEF with VP16-RXR partner) (Tenebrio molitor, UniProt O02035); test: Two-hybrid gene switch assay, luciferase reporter, TmEcR, mouse NIH3T3 cells
T4 sequence (O02035 194-491): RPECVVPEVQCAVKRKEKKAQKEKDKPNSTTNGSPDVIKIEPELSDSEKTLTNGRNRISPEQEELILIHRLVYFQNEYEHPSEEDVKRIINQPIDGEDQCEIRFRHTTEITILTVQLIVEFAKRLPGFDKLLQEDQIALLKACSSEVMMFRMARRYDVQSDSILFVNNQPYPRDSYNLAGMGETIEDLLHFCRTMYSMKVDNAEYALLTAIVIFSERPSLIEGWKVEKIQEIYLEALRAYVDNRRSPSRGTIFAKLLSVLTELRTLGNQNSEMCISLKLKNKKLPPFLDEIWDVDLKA
T4 sequence (P28704 1-520 partner): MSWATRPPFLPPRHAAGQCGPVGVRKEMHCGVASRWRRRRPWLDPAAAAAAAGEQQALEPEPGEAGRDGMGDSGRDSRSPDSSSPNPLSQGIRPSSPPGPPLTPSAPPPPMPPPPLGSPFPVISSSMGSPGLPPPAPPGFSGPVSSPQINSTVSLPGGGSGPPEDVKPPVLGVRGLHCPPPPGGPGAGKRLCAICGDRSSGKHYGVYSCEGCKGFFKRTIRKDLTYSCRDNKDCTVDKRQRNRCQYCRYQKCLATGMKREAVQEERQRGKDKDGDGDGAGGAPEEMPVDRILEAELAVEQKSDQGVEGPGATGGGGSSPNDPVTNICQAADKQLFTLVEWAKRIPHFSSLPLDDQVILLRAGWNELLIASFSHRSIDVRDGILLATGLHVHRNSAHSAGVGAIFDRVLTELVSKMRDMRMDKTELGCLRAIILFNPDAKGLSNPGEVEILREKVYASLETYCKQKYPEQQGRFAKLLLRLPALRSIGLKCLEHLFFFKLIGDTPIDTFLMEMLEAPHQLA

[7] = target: T5, BaEcR (GAL4-EcR DEF with VP16-RXR-USP chimera) (Bemisia tabaci, UniProt A0A6M3RDR8); test: Two-hybrid gene switch assay, luciferase reporter, BaEcR, mouse NIH3T3 cells; conditions: EC50, FIG. 14A/14B, GAL4-EcR(DEF) with VP16-RXR-USP chimera
T5 sequence (A0A6M3RDR8 115-530): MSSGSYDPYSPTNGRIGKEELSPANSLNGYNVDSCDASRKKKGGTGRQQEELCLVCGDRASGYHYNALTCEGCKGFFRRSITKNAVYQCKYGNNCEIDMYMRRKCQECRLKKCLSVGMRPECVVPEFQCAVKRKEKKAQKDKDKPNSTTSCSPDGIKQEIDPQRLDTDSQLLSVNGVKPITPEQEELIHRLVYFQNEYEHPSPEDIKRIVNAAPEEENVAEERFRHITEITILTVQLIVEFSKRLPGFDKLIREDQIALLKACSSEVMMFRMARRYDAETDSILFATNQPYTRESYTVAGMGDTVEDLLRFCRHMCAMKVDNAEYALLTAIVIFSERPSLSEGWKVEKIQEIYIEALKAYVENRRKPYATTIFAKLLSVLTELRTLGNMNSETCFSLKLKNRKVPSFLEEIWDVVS
T5 sequence (P28702 1-533 partner): T2 sequence (P28702 1-533 partner)

Sequence of wild-type Aedes aegypti EcR (AaEcR; GAL4-EcR DEF with VP16-RXR-USP chimera) (P49880 with tags, fused parts or gaps limits assumed, change not shown): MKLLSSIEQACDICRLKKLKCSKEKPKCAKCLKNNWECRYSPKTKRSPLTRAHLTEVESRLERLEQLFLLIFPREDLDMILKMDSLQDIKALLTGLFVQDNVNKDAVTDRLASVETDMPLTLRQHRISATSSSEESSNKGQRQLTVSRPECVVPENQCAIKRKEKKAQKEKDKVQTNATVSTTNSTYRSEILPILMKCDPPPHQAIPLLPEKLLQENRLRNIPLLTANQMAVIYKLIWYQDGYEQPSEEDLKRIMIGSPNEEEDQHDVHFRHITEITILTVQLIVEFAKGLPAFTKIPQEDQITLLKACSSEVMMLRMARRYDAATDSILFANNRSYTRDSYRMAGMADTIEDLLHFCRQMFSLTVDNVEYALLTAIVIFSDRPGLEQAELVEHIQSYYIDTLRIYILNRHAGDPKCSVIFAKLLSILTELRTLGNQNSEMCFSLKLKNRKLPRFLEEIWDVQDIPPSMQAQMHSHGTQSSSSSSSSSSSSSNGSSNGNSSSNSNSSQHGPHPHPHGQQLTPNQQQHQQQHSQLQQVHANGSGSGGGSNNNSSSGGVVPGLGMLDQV
Sequence of wild-type Drosophila melanogaster EcR (DmEcR; GAL4-EcR DEF with VP16-RXR-USP chimera) (P34021 with tags, fused parts or gaps limits assumed): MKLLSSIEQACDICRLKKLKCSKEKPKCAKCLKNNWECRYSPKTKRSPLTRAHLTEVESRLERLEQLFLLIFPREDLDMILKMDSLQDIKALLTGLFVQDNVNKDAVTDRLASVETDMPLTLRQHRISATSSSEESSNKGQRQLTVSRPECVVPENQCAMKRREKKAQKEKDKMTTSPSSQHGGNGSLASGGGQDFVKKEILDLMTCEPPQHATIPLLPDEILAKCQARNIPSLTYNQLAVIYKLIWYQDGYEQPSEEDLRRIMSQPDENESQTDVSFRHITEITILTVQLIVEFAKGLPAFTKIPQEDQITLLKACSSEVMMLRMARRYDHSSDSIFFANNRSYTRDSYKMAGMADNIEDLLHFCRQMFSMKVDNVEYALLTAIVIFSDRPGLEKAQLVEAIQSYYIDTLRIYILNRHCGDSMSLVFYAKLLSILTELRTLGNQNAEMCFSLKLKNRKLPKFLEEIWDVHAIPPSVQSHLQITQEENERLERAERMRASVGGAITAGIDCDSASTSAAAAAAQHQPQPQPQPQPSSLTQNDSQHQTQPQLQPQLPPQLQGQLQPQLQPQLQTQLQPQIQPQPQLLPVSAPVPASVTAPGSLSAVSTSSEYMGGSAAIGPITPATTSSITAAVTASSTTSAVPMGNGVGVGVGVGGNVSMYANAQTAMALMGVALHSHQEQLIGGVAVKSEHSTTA

## CCO[C@H](CCC(C)(C)O)[C@](C)(O)C1CC[C@@]2(O)C3=CC(=O)C4C[C@@H](O)[C@@H](O)CC4(C)C3CCC12C (stereo partly shown) [20E-22-ethyl ether]
[1]
  Emax: 77%

## CO[C@H](CCC(C)(C)OC)[C@](C)(O)[C@H]1CC[C@@]2(O)C3=CC(=O)[C@@H]4C[C@@H](O)[C@@H](O)C[C@]4(C)[C@H]3CC[C@]12C [Compound 14]
[2]; EC50, FIG. 8
  EC50: 1.58 µM
[3]
  EC50: > 33 µM

## CO[C@H](CCC(C)C)[C@](C)(O)C1CC[C@@]2(O)C3=CC(=O)C4C[C@@H](O)[C@@H](O)CC4(C)C3=CCC12C (stereo partly shown) [Compound 22]
[3]
  EC50: 13.7 µM

## CC(C)CCC(O)C(C)(O)C1CCC2(O)C3=CC(=O)C4(O)CC(O)C(O)CC4(C)C3C(O)CC12C (stereo not shown) [Compound 28]
[2]; EC50, FIG. 8
  EC50: 0.112 µM

## CO[C@H]1C[C@@]2(C)[C@@H](C[C@H]1O)C(=O)C=C1[C@@H]2CC[C@]2(C)[C@@H]([C@@](C)(O)[C@@H](CCC(C)C)OC)CC[C@@]12O [Compound 19]
[3]
  EC50: 27.8 µM

## CC(C)(O)CC[C@@H](O)[C@](C)(O)[C@H]1CC[C@@]2(O)C3=CC(=O)[C@@H]4C[C@@H](O)[C@@H](O)C[C@]4(C)[C@H]3CC[C@]12C [Compound 25]
[4]; FIG. 8, read-out: EC50
  EC50: 0.93 µM

## C=CCO[C@H](CCC(C)(C)O)[C@](C)(O)C1CC[C@@]2(O)C3=CC(=O)C4C[C@@H](O)[C@@H](O)CC4(C)C3CCC12C (stereo partly shown) [Compound 7]
[2]; EC50, FIG. 8
  EC50: ~5 µM
[3]
  EC50: > 33 µM

## CC(C)CC[C@@H](O)[C@](C)(O)[C@H]1CC[C@@]2(O)C3=CC(=O)[C@@H]4C[C@@H](O)[C@@H](O)C[C@]4(C)[C@H]3CC[C@]12C [PoA, ponasterone A, reference compound]
[5]
  EC50: 0.17 µM
[2]; EC50, FIG. 4C
  EC50: 0.113 µM
[2]; EC50, FIG. 16, GAL4-EcR (DEF) / VP16-RXR-USP chimera
  EC50: 0.84 µM
[3]
  EC50: 8.42 µM
[6]; EC50, FIG. 14A/14B, GAL4-EcR(DEF)
  EC50: 0.044 µM
[6]; EC50, FIG. 16, GAL4-EcR (DEF)
  EC50: 0.07 µM
[7]
  EC50: 0.031 µM

## COC(C)(C)CCC(O)C(C)(O)C1CCC2(O)C3=CC(=O)C4CC(O)C(O)CC4(C)C3CCC12C (stereo not shown) [20E-25-methyl ether]
[1]
  EC50: > 33 µM
  Emax: 0.13%

## CO[C@@]12CC[C@H]([C@@](C)(O)[C@H](O)CCC(C)C)[C@@]1(C)CC[C@H]1C2=CC(=O)[C@@H]2C[C@@H](O)[C@@H](O)C[C@@]21C [Compound 17]
[3]
  EC50: ~20 µM

## CO[C@H]1CC2(C)C(C[C@H]1OC)C(=O)C=C1C2CCC2(C)C([C@@](C)(O)[C@@H](CCC(C)(C)O)OC)CC[C@@]12OC (stereo partly shown) [Compound 15]
[3]
  EC50: > 33 µM

## CCCO[C@H](CCC(C)(C)O)[C@](C)(O)C1CC[C@@]2(O)C3=CC(=O)C4C[C@@H](O)[C@@H](O)CC4(C)C3CCC12C (stereo partly shown) [20E-22-n-propyl ether]
[1]
  EC50: > 33 µM
  Emax: 0.5%

## CC(C)(O)CC[C@@H](OCc1ccccc1)[C@](C)(O)C1CC[C@@]2(O)C3=CC(=O)C4C[C@@H](O)[C@@H](O)CC4(C)C3CCC12C (stereo partly shown) [Compound 9]
[3]
  EC50: > 33 µM

## CCCCO[C@H](CCC(C)(C)O)[C@](C)(O)C1CC[C@@]2(O)C3=CC(=O)C4C[C@@H](O)[C@@H](O)CC4(C)C3CCC12C (stereo partly shown) [Compound 8]
[2]; EC50, FIG. 8
  EC50: 14.6 µM
[3]
  EC50: > 33 µM
[4]; FIG. 8, read-out: EC50
  EC50: 2.72 µM

## COC(C)(C)CC[C@@H](O)[C@](C)(O)[C@H]1CC[C@@]2(O)C3=CC(=O)[C@@H]4C[C@@H](O)[C@@H](O)C[C@]4(C)[C@H]3CC[C@]12C [Compound 10]
[2]; EC50, FIG. 8
  EC50: 5.45 µM
[4]; EC50, FIG. 8
  EC50: ~0.3 µM

## CC(C)(O)CC[C@@H](O)[C@](C)(O)[C@H]1CC[C@@]2(O)C3=CC(=O)[C@]4(O)C[C@@H](O)[C@@H](O)C[C@]4(C)[C@H]3CC[C@]12C [polypodine B, reference compound]
[1]; wt-CfEcR gene switch, NIH3T3, Example One
  EC50: ~12 µM

## CC(C(O)CCC(C)(C)O)C1CCC2(O)C3=CC(=O)C4CC(O)C(O)CC4(C)C3CCC12C (stereo not shown) [Compound 24]
[3]
  EC50: > 33 µM

## CO[C@H](CCC(C)C)[C@](C)(O)[C@H]1CC[C@@]2(OC)C3=CC(=O)[C@@H]4C[C@@H](O)[C@@H](O)C[C@]4(C)[C@H]3CC[C@]12C [Compound 21]
[3]
  EC50: > 33 µM
